System: synovial sarcoma cell lines
Test: testing against a panel of synovial sarcoma cell lines (antiproliferation)
Assay type: cell-based
Settings: FIG. 1

## O=C(CCOCCOCCOCCNc1cccc2c1C(=O)N(C1CCC(=O)NC1=O)C2=O)NCCc1ccc(N2C[C@@H]3C[C@H]2CN3/C=C/C(=O)c2ccccc2O)cc1 (stereo partly drawn) [Compound E1, 3-(2-(2-(2-((2-(2,6-dioxopiperidin-3-yl)-1,3-dioxoisoindolin-4-yl)amino)ethoxy)ethoxy)ethoxy)-N-(4-((1S,4S)-5-((E)-3-(2-hydroxyphenyl)-3-oxoprop-1-en-1-yl)-2,5-diazabicyclo[2.2.1]heptan-2-yl)phenethyl)propanamide]
  antiproliferation effect against synovial sarcoma lines: antiproliferation effect
